Reference: ChEMBL document CHEMBL1130709, “Synthesis and phototoxic property of tetra- and octa-glycoconjugated tetraphenylchlorins” (Bioorg Med Chem Lett, 1998)

Experiment: Photosensitizing ability was evaluated by the degradation of DPBF by singlet oxygen in DMSO solution at 27 degree Centigrade

Row | Structure (SMILES) | k obs [s⁻¹]
1 | OC[C@@H]1O[C@H](Oc2cc(O[C@H]3O[C@@H](CO)[C@H](O)[C@@H](O)[C@@H]3O)cc(-c3c4nc(c(-c5cc(O[C@@H]6O[C@H](CO)[C@@H](O)[C@H](O)[C@H]6O)cc(O[C@@H]6O[C@H](CO)[C@@H](O)[C@H](O)[C@H]6O)c5)c5nc(c(-c6cc(O[C@@H]7O[C@H](CO)[C@@H](O)[C@H](O)[C@H]7O)cc(O[C@@H]7O[C@H](CO)[C@@H](O)[C@H](O)[C@H]7O)c6)c6ccc([nH]6)c(-c6cc(O[C@@H]7O[C@H](CO)[C@@H](O)[C@H](O)[C@H]7O)cc(O[C@@H]7O[C@H](CO)[C@@H](O)[C@H](O)[C@H]7O)c6)c6ccc3[nH]6)CC5)C=C4)c2)[C@@H](O)[C@H](O)[C@H]1O | 0.011
2 | OC[C@@H]1O[C@H](Oc2ccc(-c3c4nc(c(-c5ccc(O[C@@H]6O[C@H](CO)[C@H](O)[C@H](O)[C@H]6O)cc5)c5nc(c(-c6ccc(O[C@@H]7O[C@H](CO)[C@H](O)[C@H](O)[C@H]7O)cc6)c6ccc([nH]6)c(-c6ccc(O[C@H]7O[C@@H](CO)[C@@H](O)[C@@H](O)[C@@H]7O)cc6)c6ccc3[nH]6)CC5)C=C4)cc2)[C@@H](O)[C@H](O)[C@@H]1O | 0.0062
3 | CC(=O)OC[C@@H]1O[C@H](Oc2cc(O[C@@H]3O[C@H](COC(C)=O)[C@@H](OC(C)=O)[C@H](OC(C)=O)[C@H]3OC(C)=O)cc(-c3c4nc(c(-c5cc(O[C@H]6O[C@@H](COC(C)=O)[C@H](OC(C)=O)[C@@H](OC(C)=O)[C@@H]6OC(C)=O)cc(O[C@H]6O[C@@H](COC(C)=O)[C@H](OC(C)=O)[C@@H](OC(C)=O)[C@@H]6OC(C)=O)c5)c5ccc([nH]5)c(-c5cc(O[C@H]6O[C@@H](COC(C)=O)[C@H](OC(C)=O)[C@@H](OC(C)=O)[C@@H]6OC(C)=O)cc(O[C@@H]6O[C@H](COC(C)=O)[C@@H](OC(C)=O)[C@H](OC(C)=O)[C@H]6OC(C)=O)c5)c5ccc([nH]5)c(-c5cc(O[C@@H]6O[C@H](COC(C)=O)[C@@H](OC(C)=O)[C@H](OC(C)=O)[C@H]6OC(C)=O)cc(O[C@@H]6O[C@H](COC(C)=O)[C@@H](OC(C)=O)[C@H](OC(C)=O)[C@H]6OC(C)=O)c5)c5nc3CC5)C=C4)c2)[C@@H](OC(C)=O)[C@H](OC(C)=O)[C@H]1OC(C)=O | 0.011
4 | OC[C@@H]1O[C@H](Oc2ccc(-c3c4nc(c(-c5ccc(O[C@@H]6O[C@H](CO)[C@@H](O)[C@H](O)[C@H]6O)cc5)c5nc(c(-c6ccc(O[C@@H]7O[C@H](CO)[C@@H](O)[C@H](O)[C@H]7O)cc6)c6ccc([nH]6)c(-c6ccc(O[C@H]7O[C@@H](CO)[C@H](O)[C@@H](O)[C@@H]7O)cc6)c6ccc3[nH]6)CC5)C=C4)cc2)[C@@H](O)[C@H](O)[C@H]1O | 0.0094
5 | CC(=O)OC[C@@H]1O[C@H](Oc2ccc(-c3c4nc(c(-c5ccc(O[C@@H]6O[C@H](COC(C)=O)[C@H](OC(C)=O)[C@H](OC(C)=O)[C@H]6OC(C)=O)cc5)c5nc(c(-c6ccc(O[C@@H]7O[C@H](COC(C)=O)[C@H](OC(C)=O)[C@H](OC(C)=O)[C@H]7OC(C)=O)cc6)c6ccc([nH]6)c(-c6ccc(O[C@H]7O[C@@H](COC(C)=O)[C@@H](OC(C)=O)[C@@H](OC(C)=O)[C@@H]7OC(C)=O)cc6)c6ccc3[nH]6)CC5)C=C4)cc2)[C@@H](OC(C)=O)[C@H](OC(C)=O)[C@@H]1OC(C)=O | 0.0068
6 | CC(=O)OC[C@@H]1O[C@H](Oc2ccc(-c3c4nc(c(-c5ccc(O[C@@H]6O[C@H](COC(C)=O)[C@@H](OC(C)=O)[C@H](OC(C)=O)[C@H]6OC(C)=O)cc5)c5nc(c(-c6ccc(O[C@@H]7O[C@H](COC(C)=O)[C@@H](OC(C)=O)[C@H](OC(C)=O)[C@H]7OC(C)=O)cc6)c6ccc([nH]6)c(-c6ccc(O[C@H]7O[C@@H](COC(C)=O)[C@H](OC(C)=O)[C@@H](OC(C)=O)[C@@H]7OC(C)=O)cc6)c6ccc3[nH]6)CC5)C=C4)cc2)[C@@H](OC(C)=O)[C@H](OC(C)=O)[C@H]1OC(C)=O | 0.012
